Experimental data as given in publication PMC9574860, “Chemical Toolkit for PARK7: Potent, Selective, and High-Throughput” (Journal of Medicinal Chemistry, 2022).
Entries after “also recorded” stand apart in the source; their conditions may differ. Where two headings read alike, the source gives them in different places.

Tests used:
Format in all cases: biochemical
PARK7 [1] = target: T1, PARK7 (Homo sapiens, UniProt Q99497); assay: Gel-based competition assay in HEK293T cell lysate with probe JYQ-92; design: GST (N, cleaved yes); made in house; host or cells: E. coli BL21(DE3) Rosetta2; settings: inhibitor 1 h 37 °C, then JYQ-92 1 μM 30 min, Figure 4E
T1 sequence (Q99497 1-189): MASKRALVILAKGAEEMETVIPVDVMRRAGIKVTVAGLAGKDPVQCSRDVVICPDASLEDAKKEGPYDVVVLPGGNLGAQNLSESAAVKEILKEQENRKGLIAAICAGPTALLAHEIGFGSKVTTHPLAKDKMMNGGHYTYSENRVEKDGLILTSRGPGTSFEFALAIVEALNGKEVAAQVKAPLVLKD
From the text: We next assessed whether we could measure the inhibitory activity of an inhibitor against PARK7 in a cell lysate using JYQ-92 to label the remaining activity of PARK7. […] The disappearance of the labeling band is a measure for inhibition.

DUBs = assay: DUB activity profiling in HEK293T cell lysate with general DUB probe Rho-Ub-PA; settings: compound 5 μM 1 h 37 °C, then Rho-Ub-PA 30 min, Figure S5
Method: Due to the structural similarity of PARK7 inhibitor JYQ-88 and UCHL1 inhibitor 8RK64 and the fact that many cyanimide-containing compounds have been identified as DUB inhibitors,[35],[37] we investigated the inhibitory potential of JYQ-88 and JYQ-92 toward DUBs. After treating the HEK293T cell lysate with JYQ-88 and JYQ-92, along with UCHL1 inhibitors, 6RK73 and 8RK64 as controls,[38] the remaining activity of DUBs was determined using the general DUB probe Rho-Ub-PA (Figure S5).[39]
Figure S5. Fluorescence labeling of DUBs to investigate their remaining activity by Rh-Ub-
PA after the treatment with PARK7 inhibitor JYQ-88 and probe JYQ-92. UCHL1 inhibitors,
6RK73 and 8RK64, were used as a control. HEK293T cell lysate was treated with 5 μM final
MOPS SDS running buffer (Novex, NuPAGE) and visualized by fluorescence scanning on a
Typhoon FLA 9500 (GE Healthcare Life Sciences) using a Rhodamine channel (λex/em
(1 picture or pasted object on this page, not shown here)

UCHL1 = target: T2, UCHL1 (Homo sapiens, UniProt P09936); assay: UCHL1 activity assay (Ub-Rho-Morpholine or Ub-AMC substrate); settings: UCHL1 1 nM, 1 h preincubation
T2 sequence (P09936 1-223): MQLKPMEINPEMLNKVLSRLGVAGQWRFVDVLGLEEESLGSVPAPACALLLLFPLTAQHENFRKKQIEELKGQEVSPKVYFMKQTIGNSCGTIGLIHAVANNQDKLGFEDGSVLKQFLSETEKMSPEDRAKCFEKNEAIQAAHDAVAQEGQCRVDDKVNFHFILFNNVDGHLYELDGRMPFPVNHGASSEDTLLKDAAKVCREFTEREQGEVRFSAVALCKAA

PARK7 [2] = target: T1, PARK7; assay: DiFMUAc PARK7 activity assay; design: GST (N, cleaved yes); made in house; host or cells: E. coli BL21(DE3) Rosetta2

Inhibitor concentration at which the PARK7 labeling band intensity is already decreased (PARK7 [1]): 0.1 µM | Inhibitor concentration from which the PARK7 labeling band has nearly disappeared (PARK7 [1]): 1 µM | IC50 (UCHL1; Figure 3E, read-out: UCHL1 IC50): 11.1 µM | IC50 (UCHL1; read-out: UbRhoMP assay UCHL1 IC50): 11.2 µM | IC50 (PARK7 [2]; DiFMUAc assay, PARK7 0.1 μM, 1 h preincubation, DiFMUAc 300 μM): 0.13 µM | Fold higher potency toward PARK7 than UCHL1 (PARK7 [2]; PARK7 IC50 (DiFMUAc) vs UCHL1 IC50): 85 fold
SMILES: N#CN1CC[C@@H](C(=O)Nc2nc3c(s2)CN(C(=O)CN=[N+]=[N-])CC3)C1 [JYQ-88, (R)-N-(5-(2-Azidoacetyl)-4,5,6,7-tetrahydrothiazolo[5,4-c]pyridin-2-yl)-1-cyanopyrrolidine-3carboxamide]
Effect on remaining DUB activity (Rho-Ub-PA labeled bands) (DUBs): no influence on DUB activity; also recorded: without showing any effect
